Laboratory results published in patent publication US20090081174A1 (priority 2005, published 2009).
Like-named read-outs stand apart in the source and are kept apart here.

Key:
[1] = system: Plasmopara viticola; test: 7-day preventive activity on Plasmopara viticola, leaf application on vines; type: in vivo
Method: Leaves of cultivar Merlot vines, grown in vases, in a conditioned environment (20±1° C., 70% relative humidity) are treated by spraying both sides of the leaves with the mixtures under examination dispersed in an aqueous solution containing a 0.3% of tween 20.
After remaining 7 days in a conditioned environment, the plants are infected on the lower side with an aqueous suspension of spores of Plasmopara viticola (200,000 spores per cm^3).
The plants are kept in a humidity saturated environment, at 21° C., for the incubation period of the fungus and, at the end of this period (7 days), the fungicidal activity is evaluated according to an evaluation percentage scale from 100 (healthy plant) to 0 (completely infected plant).
From the data indicated in tables 1-2, it is possible to verify the synergistic effect of the mixtures, consisting of the mixtures being examined, compared with the expected efficacy using the Limpel formula (“Pesticide Science” (1987), vol. 19, pages 309-315): […]
wherein: • E is the fungicidal activity expected, in the absence of synergistic effects, from a mixture obtained by mixing g·x of compound X with g·y of compound Y; • x is the activity of compound X when used alone with a dosage of g·x; • y is the activity of compound Y when used alone with a dosage of g·y. […]

[2] = system: Phytophthora infestans; type: in vivo; settings: potato plants, scale 100 to 0

Molecule	Activity (y) ([1]; listed phosphite salt(s) alone at 250 ppm equivalent phosphorous acid, scale 100 to 0)	Activity (y) ([2]; Table 4: listed phosphite salt(s) alone at 750 ppm equivalent phosphorous acid)	Activity (y) ([2]; Table 5: listed phosphite salt(s) alone at 750 ppm equivalent phosphorous acid)	Activity (y) ([1]; listed salt alone at 500 ppm equivalent phosphorous acid, scale 100 (healthy) to 0 (completely infected))	Activity (y) ([2]; listed salt alone at 750 ppm equivalent phosphorous acid)
O=[PH]([O-])[O-].[Cu+2] [CuHPO3, copper (II) salt of phosphorous acid]	35	12	12		
K2HPO3 [Mixture K2HPO3]				45	5
